According to article PMC12376128, “In vitro and In Vivo Drug Metabolism Analysis of BPI-460372 - A Covalent TEAD1/3/4 Inhibitor” (Current Drug Metabolism, 2025):

Columns and labels:
CYP2D6 [1] = molecular target: T1, CYP2D6 (Homo sapiens, UniProt P10635); assay: Metabolic stability in recombinant human CYP isoenzymes; format: in vitro ADME; design: purchased Cypex Ltd. (Dundee, UK); conditions: in 5 min
Method: (§1) To identify the specific isoform that participates in the metabolism of BPI-460372, 1 µM BPI-460372 or positive control substrates were mixed with recombinant human CYP1A2, 2B6, 2C8, 2C9, 2C19, 2D6 or 3A4 (100 pmol P450·mL^-1), and the reaction was started by the addition of NADPH (1 mM final concentration) after 5-minute preincubation at 37°C. Aliquots were maintained in acetonitrile containing IS at different time points at 0 min, 5 min, 10 min, 20 min, 30 min, and 60 min. All incubations were performed in triplicate, and the concentration of the supernatant was determined by LC-MS/MS.
(§2) A substrate depletion approach was employed to determine the intrinsic clearance (CLint (rCYPj)) for each isoform. The contribution of each isoform was estimated using equations 2 and 3. CYPj abundance was evaluated as the abundance (CYPj) of each isoform in HLMs (pmol/mg protein).

CYP2D6 [2] = molecular target: T1, CYP2D6; assay: Metabolic stability in HLMs with or without specific CYP inhibitor (quinidine); format: in vitro ADME; design: HLMs (1 mg protein·mL^-1); tissue BioIVT; host or cells: pooled human liver microsomes; conditions: HLMs 1 mg protein/mL, substrate 1 μM, quinidine 20 µM
Method: (§3) Before starting the experiments, the HLMs were thawed gently on ice. Metabolic stability incubations were performed at 37 °C. The incubations contained 100 mM phosphate buffer saline (PBS, pH 7.4), HLMs (1 mg protein·mL^-1), dimethyl sulfoxide (DMSO, blank control) or a selective CYP inhibitor, and BPI-460372 or positive control substrates (final incubation concentration, 1 μM). The incubation process started with the addition of NADPH (1 mM final concentration) after a 5-minute preincubation period. The chemical inhibitors were as follows: a-naphthoflavone (2 µM) for CYP1A2, ticlopidine (20 µM) for 2B6, quercetin (20 µM) for CYP2C8, sulfaphenazole (20 µM) for CYP2C9, ticlopidine (200 µM) for CYP2C19, quinidine (20 µM) for CYP2D6, and ketoconazole (20 µM) for CYP3A [9]. Aliquots were maintained in acetonitrile containing internal standard (IS) at various time points, such as 0 min, 5 min, 10 min, 20 min, 30 min, and 60 min. All incubations were performed in triplicate, and the concentration in the supernatant was determined by liquid chromatography-tandem mass spectrometry (LC-MS/MS).
(§4) The elimination rate constant k (min^-1) was obtained by linear regression from the natural logarithm of the […] of the parent drug and the incubation time. The inhibition rate was calculated using equation 1 [10]: […]

CYP2C9 [3] = molecular target: T2, CYP2C9 (Homo sapiens, UniProt P11712); assay: Metabolic stability in HLMs with or without specific CYP inhibitor (sulfaphenazole); format: in vitro ADME; design: HLMs (1 mg protein·mL^-1); tissue BioIVT; host or cells: pooled human liver microsomes; conditions: 1 µM, pH 7.4
Method: as §3, §4

CYP2C9 [4] = molecular target: T2, CYP2C9; assay: Metabolic stability in recombinant human CYP isoenzymes; format: in vitro ADME; design: purchased Cypex Ltd. (Dundee, UK); conditions: rCYP2C9, 1 µM
Method: as §1, §2

TEAD proteins = assay: Covalent binding to TEAD proteins (in vitro); conditions: in vitro studies
[5] = Metabolite identification in rat plasma, urine, feces and bile; format: in vivo, SD rats; conditions: for Relative abundance of MS peak areas, Rat Bile 0-48 h / Relative abundance of MS peak areas, Rat Feces 0-48 h / Relative abundance of MS peak areas, Rat Urine 0-48 h: oral 6 mg/kg BPI-460372, average of male and female pooled samples; for Relative abundance of MS peak areas, Rat Plasma 0-24 h: oral 12 mg/kg BPI-460372, average of male and female pooled samples
Method: (§5) The plasma samples were acquired from SD rats (n=6, 3 female and 3 male) and beagle dogs (n=6, 3 female and 3 male) after administration of 12 mg/kg and 8 mg/kg of BPI-460372, respectively. The rat urine, feces, and bile samples were acquired in SD rats after administration of 6 mg/kg of BPI-460372.
(§6) Equal volume from each rat was pooled together to get 1 male and 1 female 0-24 h plasma samples. An equal percentage by volume of individual urine sample (0-8, 8-24, and 24-48 h) from 3 female and 3 male rats was pooled by time interval across rats, respectively, resulting in two pooled urine samples (1 male and 1 female). An equal percentage by weight of individual feces samples (0-8, 8-24, and 24-48 h) was pooled by time interval across female and male rats, resulting in two pooled fecal samples. An equal percentage by volume of individual bile samples (0-4, 4-8, 8-24, and 24-48 h) was pooled by time interval across female and male rats, resulting in two pooled bile samples. […] Equal volumes from 3 female and 3 male rats were pooled together to get two 0-48 h plasma samples. For blank samples of plasma, urine, and bile, equal volume was pooled across subjects. For a blank sample of feces, equal weight was pooled across rats.
(§7) The pooled plasma, feces, and bile samples were extracted by adding 3-fold volume of acetonitrile, and the mixture was vortexed (1 min) and sonicated (1 min) before centrifugation (7220 g, 5 min). The pooled urine samples were centrifuged (7220 g, 5 min). Then the supernatant was transferred into a clean tube and evaporated to dryness under the nitrogen stream. The residues were redissolved with an appropriate volume of acetonitrile/water (20: 80, v: v). After centrifugation, the redissolved solution was transferred into an HPLC vial for UHPLC-Orbitrap-HRMS (15000 g, 10 min, 4°C).

dog hepatocytes = assay: Metabolism and metabolite formation in hepatocytes; format: in vitro ADME, beagle dog; conditions: beagle dog hepatocytes, 10 µM BPI-460372, 4 h incubation
Excerpt: (§8) All the samples were duplicates.

[6] = Metabolite identification in dog plasma; format: in vivo, beagle dogs; conditions: oral 8 mg/kg BPI-460372, average of male and female pooled samples
Method: as §5, §6, §7

TEAD palmitoylation = assay: Inhibition of TEAD palmitoylation (in vitro); format: biochemical; conditions: in vitro studies
human hepatocytes = assay: Metabolism and metabolite formation in hepatocytes; conditions: human hepatocytes, 10 µM BPI-460372, 4 h incubation
Method: 10 µM BPI-460372 was incubated in five species (human, cynomolgus monkey, beagle dog, SD rat, and ICR mouse) hepatocytes (1 × 10^6 cells·min^-1) at 37 °C for 4 h. 7-EC, as positive control, was incubated for 0 h and 4 h. For blank control, hepatocytes were inactivated by adding ice-cold acetonitrile, and then the BPI-460372 solution was added. All the samples were duplicates. Incubations were stopped using the same volume of cold acetonitrile. The tube was vortexed, and the duplicate samples were combined. Metabolite profiling and identification of BPI-460372 were conducted by using UHPLC-Orbitrap-HRMS. The samples of 7-EC were analyzed by LC-MS/MS and then semi-quantified using the peak area ratio of analyte versus IS.
For hepatocyte metabolite identification, the different metabolites of BPI-460372 were detected using an ACQUITY UPLC HSS T3 column (1.8 µm, 100 mm × 2.1 mm) and ACQUITY UPLC BEH C18 column (1.7 µm, 100 mm × 2.1 mm) for rat and dog metabolite identification. The mobile phase contained a mixture of 0.1% formic acid in water (A) and 0.1% formic acid in acetonitrile (B). The gradient elution program was as follows: 0.0-1.0 min, 5% B; 1.0-7.0 min, 5%-30% B; 7.0-12.0 min, 30%-80% B; 12.0-16.0 min, 80%-95% B; 16.0-18.0 min, 95% B; 18.0-18.1 min, 95%-5% B. Then, 5% B from 18.1 to 20.0 min was maintained for equilibration. The flow rate was set to 0.5 mL/min, and the column temperature was kept at 40°C. Eluted fractions were monitored by a UV detector at 314 nm.

monkey hepatocytes = assay: Metabolism and metabolite formation in hepatocytes; format: in vitro ADME, cynomolgus monkey; conditions: cynomolgus monkey hepatocytes, 10 µM BPI-460372, 4 h incubation
Excerpt: as §8

rat hepatocytes = assay: Metabolism and metabolite formation in hepatocytes; format: in vitro ADME, SD rat; conditions: SD rat hepatocytes, 10 µM BPI-460372, 4 h incubation
Excerpt: as §8

mouse hepatocytes = assay: Metabolism and metabolite formation in hepatocytes; format: in vitro ADME, ICR mouse; conditions: ICR mouse hepatocytes, 10 µM BPI-460372, 4 h incubation
Excerpt: as §8

[7] = system: cysteine S-conjugate β-lyase; assay: Effect of cysteine S-conjugate β-lyase inhibitor AOAA on the metabolism of BPI-460372 (rat urine); conditions: for Area ratio in rat urine, mean (%CV): 20 mg/kg BPI-460372 + 100 mg/kg AOAA, once daily 21 days, urine 0-48 h on day 21; for Change of area ratio in rat urine on coadministration with AOAA: 20 mg/kg BPI-460372 with versus without 100 mg/kg AOAA
recombinant human CYP3A4 = molecular target: T3, recombinant human CYP3A4 (Homo sapiens, UniProt P08684); assay: Metabolic stability in recombinant human CYP isoenzymes; format: in vitro ADME; conditions: rCYP3A4, 1 µM
T3 construct: purchased Cypex Ltd. (Dundee, UK)
Method: as §1, §2

CYP3A4 = assay: Metabolic stability in HLMs with or without specific CYP inhibitor (ketoconazole); format: in vitro ADME, human; conditions: HLMs 1 mg protein/mL, substrate 1 μM, ketoconazole 20 µM
Method: as §3, §4

CYP2C8 = assay: Metabolic stability in HLMs with or without specific CYP inhibitor (quercetin); format: in vitro ADME, human; conditions: HLMs 1 mg protein/mL, substrate 1 μM, quercetin 20 µM
Method: as §3, §4

CYP1A2 = molecular target: T4, CYP1A2 (Homo sapiens, UniProt P05177); assay: Metabolic stability in HLMs with or without specific CYP inhibitor (α-naphthoflavone); format: in vitro ADME; design: HLMs (1 mg protein·mL^-1); tissue BioIVT; host or cells: pooled human liver microsomes; conditions: HLMs 1 mg protein/mL, substrate 1 μM, α-naphthoflavone 2 µM
T4 sequence (P05177 1-516): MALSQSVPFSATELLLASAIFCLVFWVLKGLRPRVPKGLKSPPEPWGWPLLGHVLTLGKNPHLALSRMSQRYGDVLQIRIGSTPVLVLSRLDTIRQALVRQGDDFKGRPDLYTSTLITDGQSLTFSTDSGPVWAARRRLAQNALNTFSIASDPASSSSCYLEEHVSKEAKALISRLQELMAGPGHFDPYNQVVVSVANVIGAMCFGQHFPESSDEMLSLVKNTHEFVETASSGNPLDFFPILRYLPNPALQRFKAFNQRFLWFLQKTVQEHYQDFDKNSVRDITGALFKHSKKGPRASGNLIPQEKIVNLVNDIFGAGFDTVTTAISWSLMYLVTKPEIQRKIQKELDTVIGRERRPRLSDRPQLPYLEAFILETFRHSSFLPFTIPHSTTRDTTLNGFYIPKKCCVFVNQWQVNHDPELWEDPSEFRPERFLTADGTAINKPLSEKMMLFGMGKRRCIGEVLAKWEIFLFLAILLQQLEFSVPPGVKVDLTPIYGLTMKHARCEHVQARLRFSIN
Method: as §3, §4

T1 sequence (P10635 whole entry, canonical isoform): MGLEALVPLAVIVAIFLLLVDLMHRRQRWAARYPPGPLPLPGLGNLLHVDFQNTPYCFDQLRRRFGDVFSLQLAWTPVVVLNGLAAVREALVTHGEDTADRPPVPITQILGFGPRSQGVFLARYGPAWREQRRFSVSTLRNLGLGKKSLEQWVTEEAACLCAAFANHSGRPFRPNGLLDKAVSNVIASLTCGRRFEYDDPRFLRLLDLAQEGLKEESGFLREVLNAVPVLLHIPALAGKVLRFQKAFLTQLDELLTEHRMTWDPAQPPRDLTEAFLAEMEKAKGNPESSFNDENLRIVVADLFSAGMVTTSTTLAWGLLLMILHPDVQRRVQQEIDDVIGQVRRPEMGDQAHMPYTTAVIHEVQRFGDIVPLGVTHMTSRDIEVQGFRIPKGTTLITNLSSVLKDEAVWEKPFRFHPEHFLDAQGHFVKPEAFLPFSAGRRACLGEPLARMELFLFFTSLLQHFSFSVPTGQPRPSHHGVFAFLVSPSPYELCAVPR
T2 sequence (P11712 whole entry): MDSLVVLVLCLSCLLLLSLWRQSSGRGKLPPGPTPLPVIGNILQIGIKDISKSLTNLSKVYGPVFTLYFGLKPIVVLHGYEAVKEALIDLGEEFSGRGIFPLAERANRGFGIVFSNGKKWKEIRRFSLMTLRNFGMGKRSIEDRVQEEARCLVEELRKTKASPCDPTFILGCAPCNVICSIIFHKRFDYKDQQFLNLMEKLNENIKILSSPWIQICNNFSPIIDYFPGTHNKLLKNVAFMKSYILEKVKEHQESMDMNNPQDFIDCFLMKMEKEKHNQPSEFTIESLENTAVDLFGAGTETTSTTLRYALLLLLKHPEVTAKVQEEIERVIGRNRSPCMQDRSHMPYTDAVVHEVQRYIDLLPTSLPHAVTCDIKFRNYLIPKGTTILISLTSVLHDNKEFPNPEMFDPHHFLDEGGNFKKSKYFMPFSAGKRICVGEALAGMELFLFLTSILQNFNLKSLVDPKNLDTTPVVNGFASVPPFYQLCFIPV
T3 sequence (P08684 whole entry): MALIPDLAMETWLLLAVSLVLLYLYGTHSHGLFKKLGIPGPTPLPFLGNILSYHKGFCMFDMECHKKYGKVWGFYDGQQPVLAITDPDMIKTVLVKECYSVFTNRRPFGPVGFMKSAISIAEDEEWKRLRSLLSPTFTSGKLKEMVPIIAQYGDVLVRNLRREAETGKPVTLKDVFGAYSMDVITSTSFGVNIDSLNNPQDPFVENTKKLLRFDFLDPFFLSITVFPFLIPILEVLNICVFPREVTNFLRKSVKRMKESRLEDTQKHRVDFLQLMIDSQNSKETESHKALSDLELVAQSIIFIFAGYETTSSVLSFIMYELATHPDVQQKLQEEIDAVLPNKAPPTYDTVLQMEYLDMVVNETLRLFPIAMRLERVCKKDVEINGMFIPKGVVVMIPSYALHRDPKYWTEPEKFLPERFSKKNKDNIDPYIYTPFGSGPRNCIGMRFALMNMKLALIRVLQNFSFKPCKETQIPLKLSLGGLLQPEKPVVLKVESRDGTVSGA

Row | Compound | Relative abundance of MS peak areas, Rat Bile 0-48 h [5] [%] | Relative abundance of MS peak areas, Rat Feces 0-48 h [5] [%] | Relative abundance of MS peak areas, Rat Urine 0-48 h [5] [%] | Relative abundance of MS peak areas, Rat Plasma 0-24 h [5] [%] | UV (314 nm) Peak Areas Relative Abundance (dog hepatocytes) | Relative abundance of MS peak areas, Dog Plasma 0-48 h [6] [%] | UV (314 nm) Peak Areas Relative Abundance (human hepatocytes) | UV (314 nm) Peak Areas Relative Abundance (monkey hepatocytes) [%] | UV (314 nm) Peak Areas Relative Abundance (rat hepatocytes) | UV (314 nm) Peak Areas Relative Abundance (mouse hepatocytes) | Area ratio in rat urine, mean (%CV) [7] | further results
1 | COc1ccc2c(c1)[C@]13CCCC[C@@H]1[C@H](C2)N(C)CC3 [Dextromethorphan, reference compound] |  |  |  |  |  |  |  |  |  |  |  | Extent of metabolism in recombinant human CYP2D6 (CYP2D6 [1]): completely metabolized; Inhibition Rate (CYP2D6 [2]): 87.1%
2 | O=C(O)Cc1ccccc1Nc1c(Cl)cccc1Cl [Diclofenac, diclofenac, reference compound] |  |  |  |  |  |  |  |  |  |  |  | Inhibition Rate (CYP2C9 [3]): 98.2%; CLint (rCYPj) (CYP2C9 [4]): 3.53 µL/min/pmol
3 | CC(O)C(=O)N1CC(n2c(=O)n(-c3ccc(C(F)(F)F)cc3)c3nccnc32)C1 (stereo not drawn) [M407 (BPI-460430)] | 0.72 | 5.94 | 1.02 | 16.39 | + | 6.23 | + | 3.61 | 2.75% | 1.39% |  | Covalent binding to TEAD proteins (TEAD proteins): do not covalently bind; Activity: inhibition of TEAD palmitoylation (TEAD palmitoylation): inactive
4 | O=C(C(O)CO)N1CC(n2c(=O)n(-c3ccc(C(F)(F)F)cc3)c3nccnc32)C1 (stereo not drawn) [M423 (BPI-460456)] | 0.58 | 9.07 | 17.63 | 2.71 | + | 40.81 | 2.36% | 2.01 | + | + | 19.0 (57) | Covalent binding to TEAD proteins (TEAD proteins): do not covalently bind; Activity: inhibition of TEAD palmitoylation (TEAD palmitoylation): inactive
5 | CSCC(O)C(=O)N1CC(n2c(=O)n(-c3ccc(C(F)(F)F)cc3)c3nccnc32)C1 (stereo not drawn) [M453] |  | 1.57 | 17.25 | 0.05 |  | 3.58 |  |  |  |  | 0.23 (23) | Change of area ratio in rat urine on coadministration with AOAA [7]: reduced
6 | NC(CSCC(F)C(=O)N1CC(n2c(=O)n(-c3ccc(C(F)(F)F)cc3)c3nccnc32)C1)C(=O)O (stereo not drawn) [M528] | 43.88 | 1.61 | 0.69 | 1.53 | 22.65% | 7.65 | 3.01% | 3.01 | 18.4% | 24.76% | 0.12 (37) | Change of area ratio in rat urine on coadministration with AOAA [7]: reduced
7 | Cc1ncc2n1-c1ccc(Cl)cc1C(c1ccccc1F)=NC2 [Midazolam, midazolam, reference compound] |  |  |  |  |  |  |  |  |  |  |  | CLint (rCYPj) (recombinant human CYP3A4): 1.93 µL/min/pmol; Inhibition Rate (CYP3A4): 99.7%
8 | CC(=O)O[C@H]1C(=O)[C@@]2(C)[C@H]([C@H](OC(=O)c3ccccc3)[C@]3(O)C[C@H](OC(=O)[C@H](O)[C@@H](NC(=O)c4ccccc4)c4ccccc4)C(C)=C1C3(C)C)[C@]1(OC(C)=O)CO[C@@H]1C[C@@H]2O [Paclitaxel, reference compound] |  |  |  |  |  |  |  |  |  |  |  | Inhibition Rate (CYP2C8): 78.2%
9 | CCOc1ccc(NC(C)=O)cc1 [Phenacetin, phenacetin, reference compound] |  |  |  |  |  |  |  |  |  |  |  | Inhibition Rate (CYP1A2): 79.2%
